Data published in US12624034B2, “Non-covalent modifiers of AKT1 and uses thereof” (Terremoto Biosciences, Inc., priority 2023, dated 2026).
Read-outs that look alike come from different tables or passages of the source.

Legend:
AKT1 WT = biological target: T1, AKT1 WT (Homo sapiens, UniProt P31749); assay: Live cell AKT1 WT target engagement by NanoBRET competitive probe displacement in HEK293 cells; assay type: binding; conditions: 2 h at 37° C., read-out: AKT1 WT IC50
T1 construct: expressed in transfected cells; host or cells: HEK293
Experimental: (§1) Determining live cell AKT1 E17K, AKT1 WT, and AKT2 target engagement by NanoBRET competitive probe displacement. […] Briefly, HEK293 cells were transfected with plasmids encoding kinase-NanoLuciferase fusion proteins overnight. Cells were then treated with serial dilutions of compound and an ˜EC50 concentration of fluorescently-tagged ATP-competitive tracer (Promega). After incubation for 2 h at 37° C., luciferase substrate and extracellular luciferase inhibitor were added to all wells, and luminescent intensity at 460 nm and 600 nm were measured on a multimode plate-reader. The ratio of E600/E460 was calculated to give the tracer engagement signal (BRET). IC50 values were calculated by fitting BRET values to a log(inhibitor) vs. response Hill equation.

AKT2 = biological target: T2, AKT2 (Homo sapiens, UniProt P31751); assay: Live cell AKT2 target engagement by NanoBRET competitive probe displacement in HEK293 cells; assay type: binding; conditions: 2 h at 37° C., read-out: AKT2 IC50
T2 construct: expressed in transfected cells; host or cells: HEK293
Experimental: as §1

[1] = NanoBRET live cell target engagement, HEK293 cells
[2] = NanoBRET competitive probe displacement, live HEK293 cells

T2 sequence (P31751 whole entry): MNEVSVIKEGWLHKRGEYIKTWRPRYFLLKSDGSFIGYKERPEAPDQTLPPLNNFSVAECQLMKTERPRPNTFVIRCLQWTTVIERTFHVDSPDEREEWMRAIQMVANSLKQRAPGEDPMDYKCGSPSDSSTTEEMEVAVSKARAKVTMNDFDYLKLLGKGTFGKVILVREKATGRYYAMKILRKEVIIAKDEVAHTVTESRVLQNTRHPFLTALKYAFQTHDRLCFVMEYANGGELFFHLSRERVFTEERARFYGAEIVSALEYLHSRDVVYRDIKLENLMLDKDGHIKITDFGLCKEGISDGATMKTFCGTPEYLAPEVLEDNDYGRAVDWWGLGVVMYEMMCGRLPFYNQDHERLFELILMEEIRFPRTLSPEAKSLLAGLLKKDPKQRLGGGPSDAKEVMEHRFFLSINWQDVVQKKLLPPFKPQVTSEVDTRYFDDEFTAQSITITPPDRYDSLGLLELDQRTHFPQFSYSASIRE
T1 sequence (P31749 whole entry): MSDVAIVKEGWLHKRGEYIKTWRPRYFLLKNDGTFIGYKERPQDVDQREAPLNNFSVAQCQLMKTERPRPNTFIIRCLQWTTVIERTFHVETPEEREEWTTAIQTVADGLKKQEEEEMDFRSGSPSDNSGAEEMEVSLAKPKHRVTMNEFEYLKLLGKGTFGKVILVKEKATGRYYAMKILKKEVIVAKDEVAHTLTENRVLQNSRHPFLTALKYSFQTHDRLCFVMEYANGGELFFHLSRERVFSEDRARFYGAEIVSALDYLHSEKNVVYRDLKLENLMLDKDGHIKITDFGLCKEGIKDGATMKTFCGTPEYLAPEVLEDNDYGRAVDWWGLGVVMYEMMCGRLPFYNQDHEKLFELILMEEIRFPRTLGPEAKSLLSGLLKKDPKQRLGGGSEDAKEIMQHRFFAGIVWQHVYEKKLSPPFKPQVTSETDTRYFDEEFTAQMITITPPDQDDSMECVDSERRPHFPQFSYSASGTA

SMILES	IC50 (AKT1 WT; [1]) [nM]	IC50 (AKT2; [1]) [nM]	IC50 (AKT1 WT; [2]) [nM]	IC50 (AKT2; [2]) [nM]
Cc1cc(C(=O)N[C@H]2CCc3cc(-n4c(-c5cccnc5N)nc5ccc(-n6nccn6)nc54)ccc32)cnc1C(F)F [Compound 102]	31.5	836	–	–
Cn1ccc(CN[C@H]2CCc3cc(-n4c(-c5cccnc5N)nc5ccc(-n6cccn6)nc54)ccc32)n1 [Compound 206]	121	1780	–	–
Nc1ncccc1-c1nc2ccc(-n3ccc(OC(F)F)n3)nc2n1-c1ccc2c(c1)CC[C@@H]2NC1[C@@H]2COC[C@H]1CN(C(=O)C1CC1)C2 (stereo partly drawn) [Compound 561]	–	–	93.3	3090
Nc1ncccc1-c1nc2ccc(C#CC3COC3)nc2n1-c1ccc2c(c1)CC[C@@H]2NC(=O)c1ccc(C(F)F)nc1 [Compound 408]	–	–	91.1	2300
C#Cc1cc(-n2nccn2)nc2c1nc(-c1cccnc1N)n2-c1ccc2c(c1)CC[C@@H]2NC(=O)c1ccc(C)nc1 [Compound 587]	–	–	116	1010
Nc1ncccc1-c1nc2ccc(-n3ccc(Oc4cccnc4)n3)nc2n1-c1ccc2c(c1)CC[C@@H]2NC1CCN(C(=O)C2CC2)CC1 [Compound 568]	–	–	8.72	458
Cc1ccc(S(=O)(=O)N[C@H]2CCc3cc(-n4c(-c5cccnc5N)nc5ccc(-n6cccn6)nc54)ccc32)cn1 [Compound 82]	65.8	2140	–	–
CCOc1ccn(-c2ccc3nc(-c4cccnc4N)n(-c4ccc5c(c4)CC[C@@H]5NC4CCN(C(=O)C5CC5)CC4)c3n2)n1 [Compound 486]	–	–	25.1	1070
Nc1ncccc1-c1nc2ccc(-n3cccn3)nc2n1-c1ccc2c(c1)CC[C@@H]2NC(=O)c1cc2n(n1)CCC2 [Compound 173]	30.2	226	–	–
Cc1ccc(C(=O)N[C@H]2CCc3cc(-n4c(-c5ccccc5)nc5ccc(-n6cccn6)nc54)ccc32)cn1 [Compound 400]	–	–	14.4	2100
COc1nccc2c1CCC2N[C@H]1CCc2cc(-n3c(-c4cccnc4N)nc4ccc(-n5cccn5)nc43)ccc21 (stereo partly drawn) [Compound 509]	–	–	28.7	928
C#Cc1ccc2nc(-c3cccnc3N)n(-c3ccc4c(c3)CC[C@@H]4NC(=O)c3ccc(C(F)F)nc3)c2n1 [Compound 404]	–	–	33.7	2820
Nc1ncccc1-c1nc2ccc(C#CC3CC3)nc2n1-c1ccc2c(c1)CC[C@@H]2n1cnnc1 [Compound 528]	–	–	17.2	320
Nc1ncccc1-c1nc2ccc(-n3cccn3)nc2n1-c1ccc2c(c1)CC[C@@H]2NC(=O)c1ccnc(C#Cc2ccccc2)c1 [Compound 209]	37.7	316	–	–
Nc1ncccc1-c1nc2c(F)cc(-n3cccn3)nc2n1-c1ccc2c(c1)CC[C@@H]2NC(=O)c1ccc(C(F)F)nc1 [Compound 165, (S)—N-(5-(2-(2-aminopyridin-3-yl)-7-fluoro-5-(1H-pyrazol-1-yl)-3H-imidazo[4,5-b]pyridin-3-yl)-2,3-dihydro-1H-inden-1-yl)-6-(difluoromethyl)nicotinamide]	11.6	100	–	–
CCc1ncccc1C(=O)N[C@H]1CCc2cc(-n3c(-c4cccnc4N)nc4ccc(-n5cccn5)nc43)ccc21 [Compound 86]	46.8	427	–	–
Nc1ncccc1-c1nc2ccc(-n3cccn3)nc2n1-c1ccc2c(c1)CC[C@@H]2NC(=O)CC1CCC(=O)N1 (stereo partly drawn) [Compound 47, N—((S)-5-(2-(2-aminopyridin-3-yl)-5-(1H-pyrazol-1-yl)-3H-imidazo[4,5-b]pyridin-3-yl)-2,3-dihydro-1H-inden-1-yl)-2-(5-oxopyrrolidin-2-yl)acetamide]	> 1000	> 10000	–	–
Nc1ncccc1-c1nc2ccc(-n3ccc(N4CC5CC(C4)O5)n3)nc2n1-c1ccc2c(c1)CC(F)[C@@H]2NC1CCN(C(=O)C2CC2)CC1 (stereo partly drawn) [Compound 552]	–	–	9.18	166
COc1ncncc1C(=O)N[C@H]1CCc2cc(-n3c(-c4cccnc4N)nc4ccc(-n5cccn5)nc43)ccc21 [Compound 157]	40.5	521	–	–
Nc1ncccc1-c1nc2ccc(-n3cccn3)nc2n1-c1ccc2c(c1)CC[C@@H]2NC1CCc2nc(C(F)F)sc21 (stereo partly drawn) [Compound 600]	–	–	418	7070
Cn1nc(C(=O)N[C@H]2CCc3cc(-n4c(-c5cccnc5N)nc5ccc(-n6cccn6)nc54)ccc32)cc1C(F)F [Compound 266]	18.3	468	–	–
